Read-outs that look alike come from different tables or passages of the source.
Key:
[1] = system: mice (pentylenetetrazole-induced death); assay: antipentylenetetrazole bioassay in mice (anticonvulsant activity); type: in vivo; conditions: oral; for ED50: Mus musculus, 2 h
Experimental: To evaluate the anticonvulsant activity the compounds of the present invention have been submitted to the antipentylenetetrazole bioassay in mice. The experiments have been carried out by following essentially the methodology described by Berger in J. Pharm. Exptl. Ther. 104, 468, (1952). More particularly, a fatal dose of pentylenetetrazole (140 mg/kg s.c.) was administered to groups of ten mice each, treated, 30 minutes before the administration of the convulsant agent, with a selected dose of the potential anticonvulsant compound. […] Since the animals of the control group died within 30 minutes, the effectiveness of the compounds tested, at each dose tested, was expressed as the number of animals of the group which were still alive two hours after the administration of pentylenetetrazole, out of the total number of animals of the group (10).
By testing each compound at different doses, the corresponding ED50, i.e. the dose at which 50% of the treated animals are protected, was calculated.
The same test was carried out also with 3,7-dihydro-6,7-dimethyl-5-phenyl-pyrrol[3,4-e][1,4]diazepin-2 (1H)-one (IX) [drawing 13]

monkeys = assay: taming effect test on naturally vicious and aggressive monkeys; type: in vivo; conditions: oral dose of 1 mg/kg
From the text: Another behavioural test which confirmed the anti-anxiety properties of the compounds of the present invention was the so-called "taming effect" test carried out on naturally vicious and aggressive monkeys.
The "taming effect" on monkeys is one of the most meaningful and reliable parameters with which the anti-anxiety properties of a compound can be investigated. […] A true "taming effect", as an indication of the anti-anxiety properties of a compound not ascribable to CNS-depression, is reached when the animals become docile and friendly so as to accept food from the observer's hand.

benzodiazepine receptors [2] = assay: benzodiazepine receptors test in vitro (displacement of 3H-Diazepam from rat brain receptors); type: binding
Experimental: (§1) The anti-anxiety activity of the compounds of the present invention was first shown by submitting the compounds to the "benzodiazepine receptors" test both in vitro and in vivo.
(§2) The in vitro experiments were carried out by following the method described by H. Moler and T. Okada in Life Sciences Vol. 20, 2101-2110 (1977) while those in vivo were carried out according to the procedures illustrated by S. Lippa et al. in Pharmacol. Biochem. & Behaviour, Vol. 9, pp. 853-856 (1978).

benzodiazepine receptors [3] = assay: benzodiazepine receptors test in vivo (displacement of 3H-Diazepam from rat brain receptors)
Experimental: as §1, §2

rats = assay: potentiation of hexobarbital-induced sleeping time in rats (inducing activity); type: in vivo; conditions: for potentiation of hexobarbital-induced "sleeping time": same conditions, higher doses than 1 mg/kg p.o.
Experimental: (§3) This is considered as an indication of the absence of inducing activity. These favorable pharmacological properties of the compounds of the present invention are accompanied by a low toxicity, lower than that of the prior-art compounds. As an example, while the acute oral toxicity of the prior-art 3,7-dihydro-6,7-dimethyl-5-phenylpyrrolo[3,4-e][1,4]diazepin-2(1H)-one in mice is about 500 mg/kg, that of the compound of example 5 of the present invention is comprised between 600 and 700 mg/kg and that of the compound of example 11 is higher than 20,000 mg/kg.

[4] = acute oral toxicity in mice; conditions: mouse, in vivo
Experimental: as §3

[5] = 30 minutes before pentylenetetrazole 140 mg/kg s.c., survival at two hours, read-out: ED50 (dose at which 50% of the treated animals are protected)

Structure (SMILES)	ED50 [1, 5] [mg/kg]	treated animals displaying a true "taming effect" (monkeys)	Ki (benzodiazepine receptors [2]) [nM]	"in vivo" % inhibition at 1 mg/kg/os (benzodiazepine receptors [3]) [%]	potentiation of hexobarbital-induced "sleeping time" (rats)	LD50 [4] [mg/kg]	ED50 ([1]; prior-art compound, calculated in the same way, read-out: ED50) [mg/kg]	anticonvulsant activity relative to the compounds of the present invention ([1]; comparison of ED50)	dose from which hexobarbital-induced "sleeping time" is potentiated (rats; p.o.) [mg/kg p.o.]
Cc1c2c(cn1C)NC(=O)C(O)N=C2c1ccccc1Cl (stereo not shown) [Example 10]	7.5	at least 50%	–	–	–	–	–	–	–
Cc1c2c(cn1C)NC(=O)C(O)N=C2c1ccccc1 (stereo not shown) [Example 5, 1,7-Dihydro-3-hydroxy-6,7-dimethyl-5-phenyl-pyrrolo[3,4-e][1,4]diazepin-2(1H)-one]	–	–	45.9	-45	did not show this potentiating effect even at higher doses	600 to 700	–	–	–
Cc1c2c(cn1C)NC(=O)CN=C2c1ccccc1 [IX, 3,7-dihydro-6,7-dimethyl-5-phenyl-pyrrol[3,4-e][1,4]diazepin-2 (1H)-one, reference compound]	–	–	97	-33	–	~500	15	at least twice less active than the compounds of the present invention	1
CC(=O)OC1N=C(c2ccccc2Cl)c2c(cn(C)c2C)NC1=O (stereo not shown) [Example 9, 5-(2-chlorophenyl)-3-acetoxy-1,7-dihydro-6,7-dimethylpyrrolo[3,4-e][1,4]diazepin-2-(1H)-one]	7.5	–	–	–	–	–	–	–	–
Cc1c2c(cn1C)N(C)C(=O)C(O)N=C2c1ccccc1Cl (stereo not shown) [Example 11, 5-(2-Chlorophenyl)-1,7-dihydro-3-hydroxy-1,6,7-trimethylpyrrolo[3,4-e][1,4]diazepin-2(1H)-one]	5	at least 50%	2.82	-54	did not show this potentiating effect even at higher doses	> 20000	–	–	–

Reference: patent US4402970A, “1,7-Dihydro-pyrrolo[3,4-e][1,4]diazepin-2(1H)-one derivatives” (Gruppo Lepetit S.p.A., priority 1981, dated 1983)
